Here are results for 10 compounds from PubChem BioAssay (NCI).

Among the test systems are SN12C renal; SNB-75 CNS; HCC-2998 colon; CCRF-CEM leukemia; NCI-H460 lung; EKVX NSCLC; LOX IMVI melanoma; HOP-92 NSCLC; SNB-19 CNS; OVCAR-3 ovarian.
Assay in all cases: growth of human tumour cells (NCI), 48 h

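Five compound concentrations were applied to cells in 96-well plates for 48 hours; endpoints were derived by simple linear interpolation of the resulting dose-response curve. GI50 marks 50% less growth. Definition used: TGI = concentration required for complete inhibition of growth.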

In the case of `CCN(Cc1ccc(OC)cc1)c1ccc(CO)c(Cl)c1`, the GI50 in the test with SN12C renal is 14.5 µM; in the test with SNB-75 CNS, 13.9 µM; in the test on HCC-2998 colon, 12.9 µM; with CCRF-CEM leukemia, 23.9 µM; in the test with NCI-H460 lung, 0.317 µM; in the test on EKVX NSCLC it was 20.5 µM. The GI50 in the test on LOX IMVI melanoma was 13.2 µM; in the test on HOP-92 NSCLC, 2.17 µM; with SNB-19 CNS, 26.8 µM; in the test on OVCAR-3 ovarian, 0.636 µM. In addition, the TGI in the test with SN12C renal was 39.3 µM; in the test with SNB-75 CNS, 45.6 µM; in the test with HCC-2998 colon it was 40.4 µM; with CCRF-CEM leukemia, more than 83.3 µM; in the test on NCI-H460 lung it was 14.6 µM; with EKVX NSCLC it was more than 83.3 µM. In addition, the TGI in the test on LOX IMVI melanoma was 27.4 µM; in the test with HOP-92 NSCLC, 20.7 µM; in the test on SNB-19 CNS, more than 100 µM; in the test on OVCAR-3 ovarian, 6.19 µM.

Regarding `O=C(/C=C/c1ccccc1)NC1C=Nc2ccc([N+](=O)[O-])cc2NC1=O` (centres undefined), the TGI with SN12C renal, with SNB-75 CNS, in the test with HCC-2998 colon, in the test with CCRF-CEM leukemia, in the test on NCI-H460 lung and in the test with EKVX NSCLC was more than 100 µM each time. Further, the TGI in the test with LOX IMVI melanoma, with HOP-92 NSCLC, in the test with SNB-19 CNS and with OVCAR-3 ovarian was more than 100 µM throughout.

For the compound `O=[N+]([O-])c1ccc(C2=NCCO2)cc1`, the GI50 in the test with SN12C renal was more than 100 µM; with SNB-75 CNS, more than 100 µM; with HCC-2998 colon, more than 100 µM; with CCRF-CEM leukemia, 3.15 µM; in the test with NCI-H460 lung, more than 100 µM; in the test with EKVX NSCLC, more than 100 µM. Moreover, the GI50 in the test with LOX IMVI melanoma, in the test with HOP-92 NSCLC, in the test with SNB-19 CNS and in the test with OVCAR-3 ovarian was more than 100 µM each time. Also, the TGI in the test with SN12C renal, in the test with SNB-75 CNS, in the test on HCC-2998 colon, with CCRF-CEM leukemia, in the test on NCI-H460 lung and with EKVX NSCLC was more than 100 µM throughout. The TGI in the test with LOX IMVI melanoma, in the test with HOP-92 NSCLC, in the test with SNB-19 CNS and with OVCAR-3 ovarian was more than 100 µM each time.

As for `CCOC(=O)c1noc2c1CCc1c-2cn(Cc2ccc(OC)cc2)c1-c1cc(OC)c(OC)c(OC)c1`, the GI50 is 3.92 µM in the test with SN12C renal; 3.65 µM in the test on SNB-75 CNS; 5.17 µM in the test with HCC-2998 colon; 1.04 µM in the test on CCRF-CEM leukemia; 1 µM with NCI-H460 lung; 3.92 µM in the test with EKVX NSCLC. Further, the GI50 with LOX IMVI melanoma is 0.646 µM; in the test with HOP-92 NSCLC it was 2.72 µM; with SNB-19 CNS, 0.668 µM; in the test with OVCAR-3 ovarian, 0.37 µM. Moreover, the TGI in the test with SN12C renal, in the test with SNB-75 CNS, in the test with HCC-2998 colon, with CCRF-CEM leukemia, in the test on NCI-H460 lung and in the test with EKVX NSCLC was more than 100 µM in each case. Also, the TGI in the test on LOX IMVI melanoma was more than 100 µM; in the test with HOP-92 NSCLC, more than 100 µM; with SNB-19 CNS, more than 100 µM; with OVCAR-3 ovarian, 10.6 µM.

Regarding `COC(=O)C(=O)C(C#N)c1nc2ccccc2s1` (centres undefined), the TGI in the test on SN12C renal, with SNB-75 CNS, in the test on HCC-2998 colon, in the test on CCRF-CEM leukemia, with NCI-H460 lung and with EKVX NSCLC was more than 100 µM throughout. The TGI with LOX IMVI melanoma, in the test with HOP-92 NSCLC, in the test on SNB-19 CNS and with OVCAR-3 ovarian was more than 100 µM each time.

For `Cc1c2cnccc2c(C)c2c1c1ccccc1n2CCOC(=O)c1ccccc1`, the TGI with SN12C renal is 21 µM; in the test on SNB-75 CNS it was 44.7 µM; in the test with HCC-2998 colon, 29.8 µM; in the test with CCRF-CEM leukemia it was 64.4 µM; in the test with NCI-H460 lung, 16 µM; in the test on EKVX NSCLC it was 47.9 µM. For the same compound, the TGI in the test with LOX IMVI melanoma came out at 33.7 µM; in the test on HOP-92 NSCLC it was 71.9 µM; in the test on SNB-19 CNS, 40.2 µM; in the test on OVCAR-3 ovarian, 28.8 µM.

Regarding `CC1CCCCCC(=O)c2c(O)cc(O)cc2CC(=O)O1` (centres undefined), the TGI with SN12C renal, in the test with SNB-75 CNS, in the test with HCC-2998 colon, in the test on CCRF-CEM leukemia, with NCI-H460 lung and with EKVX NSCLC was more than 100 µM in each case. Also, the TGI in the test with LOX IMVI melanoma, in the test on HOP-92 NSCLC, with SNB-19 CNS and with OVCAR-3 ovarian was more than 100 µM in each case.

As for `O=C(O)/C=C\C(=O)Nc1ccc2c(c1)-c1ccccc1C2`, the TGI in the test with SN12C renal, in the test with SNB-75 CNS, with HCC-2998 colon, in the test with CCRF-CEM leukemia, in the test on NCI-H460 lung and in the test on EKVX NSCLC was more than 100 µM in each case. Also, the TGI with LOX IMVI melanoma, in the test with HOP-92 NSCLC, with SNB-19 CNS and in the test on OVCAR-3 ovarian was more than 100 µM throughout.

Turning to `COC(=O)N[C@H]1CCc2cc(OC)c(OC)c(OC)c2-c2ccc(SC)c(=O)cc21`, the GI50 in the test on SN12C renal, with SNB-75 CNS, in the test with HCC-2998 colon, with CCRF-CEM leukemia, in the test on NCI-H460 lung and in the test on EKVX NSCLC was less than 0.01 µM each time. Besides, the GI50 with LOX IMVI melanoma is less than 0.01 µM; in the test with HOP-92 NSCLC it was 0.0631 µM; with SNB-19 CNS it was less than 0.01 µM; in the test on OVCAR-3 ovarian, less than 0.01 µM. In addition, the TGI in the test on SN12C renal, in the test on SNB-75 CNS, with HCC-2998 colon, in the test on CCRF-CEM leukemia, in the test on NCI-H460 lung and with EKVX NSCLC was more than 100 µM in each case. In addition, the TGI in the test with LOX IMVI melanoma was more than 100 µM; in the test on HOP-92 NSCLC, more than 64.8 µM; in the test with SNB-19 CNS, more than 100 µM.

For the compound `COc1cc2cc(NCc3cccc(Cl)c3)nc(C)c2cc1OC`, the GI50 in the test with SN12C renal was 2.21 µM; in the test on SNB-75 CNS, 2.83 µM; in the test on HCC-2998 colon it was 2.27 µM; in the test on CCRF-CEM leukemia, 2.54 µM; with NCI-H460 lung it was 1.27 µM; with EKVX NSCLC it was 3.52 µM. The GI50 with LOX IMVI melanoma is 0.442 µM; in the test with HOP-92 NSCLC, 0.597 µM; in the test on SNB-19 CNS, 2.12 µM; with OVCAR-3 ovarian, 3.72 µM. In addition, the TGI in the test on SN12C renal was 17.4 µM; in the test on SNB-75 CNS, 19.4 µM; in the test on HCC-2998 colon, 14.5 µM; in the test on CCRF-CEM leukemia it was more than 100 µM; with NCI-H460 lung it was 14.6 µM; with EKVX NSCLC, 36.5 µM. In addition, the TGI came out at 4.36 µM in the test on LOX IMVI melanoma, 14.3 µM with HOP-92 NSCLC, 31.8 µM in the test on SNB-19 CNS and 16.3 µM with OVCAR-3 ovarian.
